Patent publication US20250230193A1, “CYCLIC COMPOUND HAVING SELECTIVE KRAS INHIBITORY EFFECT ON HRAS AND NRAS” (CHUGAI SEIYAKU KABUSHIKI KAISHA, priority 2022, published 2025)
*1 amine or outer side, *2 acyl side, *3 side chain or, on linkers, in order; H or OH if unused. Where a SMILES comes first, the peptide text is derived from it. Bridges are numbered along the chain shown (N, C = ends). [ ]: non-standard residue; d: D form. The star is where a group is joined. hPhe(3-Cl-4-CF3) = N[C@@H](CCc1ccc(C(F)(F)F)c(Cl)c1)C(=O)O; X48 = C=CCCN([C@@H](Cc1ccc(C)cc1)C(=O)[*:2])[*:1]; NMeGly(cPent) = CN[C@H](C(=O)O)C1CCCC1; NMeAllylGly = C=CC[C@H](NC)C(=O)O; NMeD = CN[C@@H](CC(=O)O)C(=O)O; NMeL = CN[C@@H](CC(C)C)C(=O)O; Morpholide = C1CN(*)CCO1; Ac5c = NC1(C(=O)O)CCCC1; Sar = CNCC(=O)O

What was measured:
[1] = target: GDP-bound HRAS wild-type protein (Homo sapiens, UniProt P01112); experiment: Binding to HRAS by surface plasmon resonance (SPR), Single Cycle Kinetics; settings: for HRAS/KRAS (ratio of KD value with respect to HRAS to KD value with respect to KRAS) / HRAS/KRAS (ratio of KD value for HRAS to KD value for KRAS): GDP-bound HRAS wild-type vs GDP-bound KRAS wild-type
[2] = target: GDP-bound NRAS wild-type protein (Homo sapiens, UniProt P01111); experiment: Binding to NRAS by surface plasmon resonance (SPR), Single Cycle Kinetics; settings: for NRAS/KRAS (ratio of KD value with respect to NRAS to KD value with respect to KRAS) / NRAS/KRAS (ratio of KD value for NRAS to KD value for KRAS): GDP-bound NRAS wild-type vs GDP-bound KRAS wild-type
Chain of GDP-bound NRAS wild-type protein (P01111 whole entry): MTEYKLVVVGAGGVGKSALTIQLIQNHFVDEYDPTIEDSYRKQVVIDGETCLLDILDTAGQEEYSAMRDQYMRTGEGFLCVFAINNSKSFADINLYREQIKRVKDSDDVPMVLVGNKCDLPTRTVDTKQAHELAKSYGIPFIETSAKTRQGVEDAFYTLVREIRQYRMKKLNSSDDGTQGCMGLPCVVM

Chain of GDP-bound HRAS wild-type protein (P01112 whole entry): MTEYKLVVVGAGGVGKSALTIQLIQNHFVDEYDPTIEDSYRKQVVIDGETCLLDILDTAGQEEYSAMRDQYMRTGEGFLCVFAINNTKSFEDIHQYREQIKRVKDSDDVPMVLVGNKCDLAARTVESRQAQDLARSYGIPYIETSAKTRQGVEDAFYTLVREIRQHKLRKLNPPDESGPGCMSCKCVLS

## CCC[C@H]1C(=O)N[C@@H]([C@@H](C)CC)C(=O)N(C2CC2)CC(=O)N(C)[C@H]2C/C=C\CCN(C2=O)[C@@H](Cc2ccc(C)cc2)C(=O)N(C)CC(=O)N[C@@H](CCc2ccc(C(F)(F)F)c(OC)c2)C(=O)N2C[C@H](OCC)C[C@H]2C(=O)NC2(CC(C)(C)C2)C(=O)N(C)[C@@H](C2CCCC2)C(=O)N(C)[C@H](C(=O)N(C)C)CC(=O)N1C [PP2097]
[1]; SPR
  HRAS/KRAS (ratio of KD value with respect to HRAS to KD value with respect to KRAS): A (a compound having 10 or more and less than 20 is denoted as A)
[2]; SPR
  NRAS/KRAS (ratio of KD value with respect to NRAS to KD value with respect to KRAS): A (a compound having 10 or more and less than 20 is denoted as A)

## CCC[C@H]1C(=O)N[C@@H]([C@@H](C)CC)C(=O)N(C2CC2)CC(=O)N(C)[C@H]2C/C=C\CCN(C2=O)[C@@H](Cc2ccc(C)cc2)C(=O)N(C)CC(=O)N[C@@H](CCc2ccc(C(F)(F)F)c(OC)c2)C(=O)N2C[C@@H](C)C[C@H]2C(=O)N(C)C2(CCC2)C(=O)N(C)[C@@H](C2CCCC2)C(=O)N(C)[C@H](C(=O)N(C)C)CC(=O)N1C [PP2366]
[1]; SPR
  HRAS/KRAS (ratio of KD value with respect to HRAS to KD value with respect to KRAS): A (a compound having 10 or more and less than 20 is denoted as A)
[2]; SPR
  NRAS/KRAS (ratio of KD value with respect to NRAS to KD value with respect to KRAS): A (a compound having 10 or more and less than 20 is denoted as A)

## CCC[C@H]1C(=O)N[C@@H]([C@@H](C)CC)C(=O)N2CCC[C@H]2C(=O)N(C)[C@H]2C/C=C\CCN(C2=O)[C@@H](Cc2ccc(C)cc2)C(=O)N(C)CC(=O)N[C@@H](CCc2ccc(Cl)c(Cl)c2)C(=O)N2C[C@H](OCC)C[C@H]2C(=O)NC2(CC(C)(C)C2)C(=O)N(C)[C@@H](C(CC)CC)C(=O)N(C)[C@H](C(=O)N(C)C)CC(=O)N1C [PP2638]
[1]; KD ratio HRAS/KRAS, class symbols
  HRAS/KRAS (ratio of KD value with respect to GDP-bound HRAS wild-type protein to KD value with respect to KRAS): A (a compound having 10 or more and less than 20 is denoted as A)
[2]; KD ratio NRAS/KRAS, class symbols
  NRAS/KRAS (ratio of KD value with respect to GDP-bound NRAS wild-type protein to KD value with respect to KRAS): AA (a compound having 20 or more is denoted as AA)

## CC[C@H](C)[C@@H]1NC(=O)[C@H](CC)N(C)C(=O)C[C@@H](C(=O)N(C)C)N(C)C(=O)[C@H](C2CCCC2)N(C)C(=O)C2(CCC2)N(C)C(=O)[C@@H]2CCCN2C(=O)[C@H](CCc2cc(F)c(C(F)(F)F)c(F)c2)NC(=O)CN(C)C(=O)[C@H](Cc2ccc(C(F)(F)F)cc2)N2CC/C=C\C[C@@H](C2=O)N(C)C(=O)CN(C)C1=O [PP1780]
[1]; KD ratio, SPR
  HRAS/KRAS (ratio of KD value for HRAS to KD value for KRAS): A (a compound having 10 or more and less than 20 is denoted as A)
[2]; KD ratio, SPR
  NRAS/KRAS (ratio of KD value for NRAS to KD value for KRAS): A (a compound having 10 or more and less than 20 is denoted as A)

## CC[C@H](C)[C@@H]1NC(=O)[C@H](CC(C)C)N(C)C(=O)C[C@@H](C(=O)N(CC)CC)N(C)C(=O)[C@H](C2CCCC2)N(C)C(=O)C2(CCC2)NC(=O)[C@@H]2C[C@@H](C)CN2C(=O)[C@H](CCc2ccc(C(F)(F)F)c(OC)c2)NC(=O)CN(C)C(=O)[C@H](Cc2ccc(C)cc2)N2CC/C=C\C[C@@H](C2=O)N(C)C(=O)CN(C)C1=O [PP1849]
[1]; KD ratio, SPR
  HRAS/KRAS (ratio of KD value for HRAS to KD value for KRAS): A (a compound having 10 or more and less than 20 is denoted as A)
[2]; KD ratio, SPR
  NRAS/KRAS (ratio of KD value for NRAS to KD value for KRAS): A (a compound having 10 or more and less than 20 is denoted as A)

## C=CCCN1C(=O)[C@H](CC=C)N(C)C(=O)CN(C)C(=O)[C@H]([C@@H](C)CC)NC(=O)[C@H](CC(C)C)N(C)C(=O)C[C@@H](C(=O)N2CCOCC2)N(C)C(=O)[C@H](C2CCCC2)N(C)C(=O)C2(CCCC2)NC(=O)[C@@H]2CCCN2C(=O)[C@H](CCc2ccc(C(F)(F)F)c(Cl)c2)NC(=O)CN(C)C(=O)[C@@H]1Cc1ccc(C)cc1 [PP0140] ([NMeL]I[Sar][NMeAllylGly][X48][Sar][hPhe(3-Cl-4-CF3)]P[Ac5c][NMeGly(cPent)][NMeD]-Morpholide; lactam N-11)
[1]; KD ratio HRAS/KRAS, SPR
  HRAS/KRAS (ratio of KD for GDP-bound HRAS wild-type to KD for KRAS): B (a compound having 3 or more and less than 10 is denoted as B)
[2]; KD ratio NRAS/KRAS, SPR
  NRAS/KRAS (ratio of KD for GDP-bound NRAS wild-type to KD for KRAS): C (A compound having a KD ratio of 0.1 or more and less than 3 is denoted as C)

## CCCN(C)C(=O)[C@@H]1CC(=O)N(C)[C@@H](C(C)C)C(=O)N[C@@H]([C@@H](C)CC)C(=O)N(C)CC(=O)N(C)[C@H]2C/C=C\CCN(C2=O)[C@@H](Cc2ccc(C(F)(F)F)cc2)C(=O)N(C)CC(=O)N[C@@H](CCc2ccc(C(F)(F)F)c(OC)c2)C(=O)N2C[C@@H](C)C[C@H]2C(=O)NC2(CCC2)C(=O)N(C)[C@@H](C2CCCC2)C(=O)N1C [PP2067]
[1]; SPR
  HRAS/KRAS (ratio of KD value with respect to HRAS to KD value with respect to KRAS): A (a compound having 10 or more and less than 20 is denoted as A)
[2]; SPR
  NRAS/KRAS (ratio of KD value with respect to NRAS to KD value with respect to KRAS): AA (a compound having 20 or more is denoted as AA)

## CCO[C@@H]1C[C@H]2C(=O)NC3(CCC3)C(=O)N(C)[C@@H](C3CCCC3)C(=O)N(C)[C@H](C(=O)N(C)C)CC(=O)N(C)[C@@H](Cc3ccc(Cl)cc3)C(=O)N[C@@H]([C@@H](C)CC)C(=O)N(C)CC(=O)N(C)[C@H]3CCCCCN(C3=O)[C@@H](Cc3ccc(C(F)(F)F)cc3)C(=O)N(C)CC(=O)N[C@@H](CCc3cc(F)c(C(F)(F)F)c(F)c3)C(=O)N2C1 [PP0940]
[1]; KD ratio, SPR
  HRAS/KRAS (ratio of KD value with respect to HRAS to KD value with respect to KRAS): C (A compound having a KD ratio of 0.1 or more and less than 3 is denoted as C)
[2]; KD ratio, SPR
  NRAS/KRAS (ratio of KD value with respect to NRAS to KD value with respect to KRAS): B (a compound having 3 or more and less than 10 is denoted as B)
